Reference: the supplement of paper PMC10883282

Key:
Assay in all cases: relative viability vs DMSO control (72 h) (fraction); higher = more viable cells
[1] = tested on: HT1080
Method in brief: (§1)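 Relative viability was measured with ATPLite and expressed as percent growth, averaged across up to triplicate wells. Sarcoma cell lines had been seeded in 384-well plates to reach 80–90% confluence, dosed after 24 h, and incubated 72 h at 37 °C, 5% CO2. All data were rescaled on a scale where 1 is full and 0 is none.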

[2] = tested on: MES-SA
Method in brief: as §1

[3] = tested on: SW684
Method in brief: as §1

[4] = tested on: KHOS-NP
Method in brief: as §1

[5] = tested on: VA-ES-BJ
Method in brief: as §1

[6] = tested on: SK-LMS-1
Method in brief: as §1

[7] = tested on: SW872
Method in brief: as §1

[8] = tested on: SK-ES-1
Method in brief: as §1

[9] = tested on: G401
Method in brief: as §1

[10] = tested on: SW1353
Method in brief: as §1

[11] = tested on: RD-ES
Method in brief: as §1

[12] = tested on: RD
Method in brief: as §1

C=CC(=O)Nc1cccc(Nc2nc(Nc3ccc(N4CCN(C(C)=O)CC4)cc3OC)ncc2C(F)(F)F)c1 [Rociletinib]
Settings	relative viability
[1], 0.00017 µM	1.07
[1], 0.00051 µM	1.06
[1], 0.00152 µM	1.05
[1], 0.00457 µM	1.06
[1], 0.01372 µM	1.04
[1], 0.04115 µM	1.03
[1], 0.1235 µM	1.06
[1], 0.3704 µM	1.1
[1], 1.111 µM	1.03
[1], 3.333 µM	0.997
[1], 10 µM	0.454
[2], 0.00017 µM	0.95
[2], 0.00051 µM	0.955
[2], 0.00152 µM	0.942
[2], 0.00457 µM	0.957
[2], 0.01372 µM	0.942
[2], 0.04115 µM	0.944
[2], 0.1235 µM	0.926
[2], 0.3704 µM	0.9383
[2], 1.111 µM	0.765
[2], 3.333 µM	0.329
[2], 10 µM	0.193
[3], 0.00017 µM	1.13
[3], 0.00051 µM	1.16
[3], 0.00152 µM	1.16
[3], 0.00457 µM	1.17
[3], 0.01372 µM	1.18
[3], 0.04115 µM	1.18
[3], 0.1235 µM	1.14
[3], 0.3704 µM	1.1
[3], 1.111 µM	1.004
[3], 3.333 µM	0.908
[3], 10 µM	0.666
[4], 0.00017 µM	1.09
[4], 0.00051 µM	1.1
[4], 0.00152 µM	1.113
[4], 0.00457 µM	1.09
[4], 0.01372 µM	1.09
[4], 0.04115 µM	1.06
[4], 0.1235 µM	1.09
[4], 0.3704 µM	1.07
[4], 1.111 µM	1.06
[4], 3.333 µM	1.025
[4], 10 µM	0.537
[5], 0.00017 µM	1.04
[5], 0.00051 µM	1.05
[5], 0.00152 µM	1.02
[5], 0.00457 µM	1.03
[5], 0.01372 µM	0.981
[5], 0.04115 µM	0.991
[5], 0.1235 µM	0.994
[5], 0.3704 µM	0.972
[5], 1.111 µM	0.915
[5], 3.333 µM	0.648
[5], 10 µM	0.399
[6], 0.00017 µM	1.07
[6], 0.00051 µM	1.089
[6], 0.00152 µM	1.07
[6], 0.00457 µM	1.07
[6], 0.01372 µM	1.05
[6], 0.04115 µM	1.03
[6], 0.1235 µM	1.04
[6], 0.3704 µM	0.961
[6], 1.111 µM	0.847
[6], 3.333 µM	0.638
[6], 10 µM	0.373
[7], 0.00017 µM	1.1
[7], 0.00051 µM	1.08
[7], 0.00152 µM	1.07
[7], 0.00457 µM	1.07
[7], 0.01372 µM	1.05
[7], 0.04115 µM	1.048
[7], 0.1235 µM	1.04
[7], 0.3704 µM	1.01
[7], 1.111 µM	0.89
[7], 3.333 µM	0.713
[7], 10 µM	0.475
[8], 0.00017 µM	0.973
[8], 0.00051 µM	1.02
[8], 0.00152 µM	1.03
[8], 0.00457 µM	1.06
[8], 0.01372 µM	1
[8], 0.04115 µM	1.03
[8], 0.1235 µM	1.02
[8], 0.3704 µM	0.943
[8], 1.111 µM	0.658
[8], 3.333 µM	0.232
[8], 10 µM	0.0621
[9], 0.00017 µM	1.04
[9], 0.00051 µM	1.07
[9], 0.00152 µM	1.04
[9], 0.00457 µM	1.05
[9], 0.01372 µM	1.04
[9], 0.04115 µM	1.02
[9], 0.1235 µM	1.05
[9], 0.3704 µM	1.02
[9], 1.111 µM	0.827
[9], 3.333 µM	0.54
[9], 10 µM	0.211
[10], 0.00017 µM	1.04
[10], 0.00051 µM	1
[10], 0.00152 µM	1.01
[10], 0.00457 µM	1.06
[10], 0.01372 µM	1
[10], 0.04115 µM	1.01
[10], 0.1235 µM	1.01
[10], 0.3704 µM	0.962
[10], 1.111 µM	0.769
[10], 3.333 µM	0.594
[10], 10 µM	0.338
[11], 0.00017 µM	0.965
[11], 0.00051 µM	0.962
[11], 0.00152 µM	0.961
[11], 0.00457 µM	0.979
[11], 0.01372 µM	0.967
[11], 0.04115 µM	1
[11], 0.1235 µM	0.937
[11], 0.3704 µM	0.889
[11], 1.111 µM	0.673
[11], 3.333 µM	0.453
[11], 10 µM	0.125
[12], 0.00017 µM	1.04
[12], 0.00051 µM	1.078
[12], 0.00152 µM	1.08
[12], 0.00457 µM	1.112
[12], 0.01372 µM	1.11
[12], 0.04115 µM	1.08
[12], 0.1235 µM	1.11
[12], 0.3704 µM	1.05
[12], 1.111 µM	0.911
[12], 3.333 µM	0.594
[12], 10 µM	0.293
